“Also recorded” adds a separate entry of the source.
How the values were obtained:
[1] = tested on: Jurkat T cells; experiment: Growth and cell surface markers of transduced Jurkat T cells; details: CD4, CXCR4, CD11a, CD18, ICAM3, MHC-I
[2] = tested on: V86P/H87Q/I91V/M96I HIV-1; experiment: V86P/H87Q/I91V/M96I HIV-1 CA variant vector challenge; type: cell-based
Text: Most HIV-1 plasmids and vectors have been described previously (Berthoux et al., 2004). pNL4-3 contains a complete infectious HIV-1 provirus. pNL4-3-R5 bears the V3 loop of the CCR5-tropic 92TH014-2 HIV-1 strain (Papkalla et al., 2002). To generate pNL4-3-GFP-IRES-Nef, enhanced green fluorescent protein (eGFP) and the ECMV (encephalomyocarditis virus) IRES (internal ribosome entry site) were inserted upstream of nef pNLΔenvGFP is pNL4-3 with an env-inactivating mutation and eGFP in place of nef. CSGW is an HIV-1 vector expressing eGFP under the control of the spleen focus forming virus (SFFV) promoter. pFUPI, was engineered from pFUW (Lois et al., 2002) and uses the ubiquitin promoter to drive expression of a puromycin resistance cassette followed by ECMV IRES-T5. pAIG uses the SFFV promoter to drive expression of T5 followed by IRES-eGFP. In pscALPS, the SFFV promoter drives expression of T5 and the human CypA promoter drives expression of eGFP. For three-component vector production, HIV-1 gag and pol were expressed using either psPAX2, p8.9NΔSB, p8.9NΔSB-G89V, or p8.9NΔSB-V86P/H87Q/I91V/M96I. p8.9NΔSB-V86P/H87Q/I91V/M96I is p8.9NΔSB with the V86P/H87Q/I91V/M96I mutation (Chatterji et al., 2005) introduced in CA. […] For biochemistry, hT5Cyps were cloned into the p3xFLAG-CMV-7.1 expression vector (Sigma) and HIV-1 CA was expressed as a GST-fusion using the EF1α promoter.

[3] = tested on: HIV-1NL4-3-GFP-IRES-Nef; experiment: Spreading infection of Jurkat T cells with replication-competent HIV-1; type: cell-based; details: for HIV-1 replication in spreading infection: in words, Jurkat, up to two months; for isolation of resistant HIV-1: wide range of inocula
Description: Jurkat T cells stably transduced with T5-expression vectors were infected with replication-competent HIV-1NL4-3-GFP-IRES-Nef.
(§1) 2×10^4 adherent cells/well or 8×10^4 suspension cells/well were plated in 48-well plates (Nunc) for challenge with single-cycle GFP reporter vectors that were titered as indicated. GFP synthesis was assessed by flow cytometry 48 hrs post-infection. For spreading infection, 10^6 Jurkat cells were infected with 1 to 15 ng p24/10^6 cells of HIV-1NL4-3-GFP-IRES-Nef. Cells were split every 3 days, fixed in 0.5% paraformaldehyde/PBS, and assayed for GFP synthesis by flow cytometry. For infection of 10^6 primary CD4^+ T cells or macrophages, 15 ng p24/10^6 cells of a CXCR4- or CCR5-tropic HIV-1NL4-3 stock was used, and infection was monitored by assessing the accumulation of RT activity in the supernatant (Sayah et al., 2004). FACSCalibur, Cellquest Pro (Becton Dickinson), and FlowJo software (Treestar, Inc.) were used to record and analyze fluorescence. 1-5×10^5 events were acquired for analysis.
as §1, with “cytometry.” for “cytometry. For infection of”, “or macrophages were infected with” for “or macrophages,”, “of CXCR4” for “of a CXCR4-”, “HIV-1NL4-3 stocks, or with low passage, primary isolates HIV-1DH12” for “HIV-1NL4-3 stock was used,”, “and HIV-1132W, (Olivier Schwartz, Pasteur Institute, Paris). Infection” for “and infection”, “supernatant (7).” for “supernatant (Sayah et al., 2004).”

[4] = tested on: SIVMAC251; experiment: SIVMAC251 GFP vector challenge of CRFK cells expressing T5 proteins; type: cell-based; details: in words
Text: Most HIV-1 plasmids and vectors have been described previously (Berthoux et al., 2004). pNL4-3 contains a complete infectious HIV-1 provirus. pNL4-3-R5 bears the V3 loop of the CCR5-tropic 92TH014-2 HIV-1 strain (Papkalla et al., 2002). To generate pNL4-3-GFP-IRES-Nef, enhanced green fluorescent protein (eGFP) and the ECMV (encephalomyocarditis virus) IRES (internal ribosome entry site) were inserted upstream of nef pNLΔenvGFP is pNL4-3 with an env-inactivating mutation and eGFP in place of nef. […] For biochemistry, hT5Cyps were cloned into the p3xFLAG-CMV-7.1 expression vector (Sigma) and HIV-1 CA was expressed as a GST-fusion using the EF1α promoter.
as §1, with “For spreading infection, 10^6 Jurkat cells were infected with 1 to 15 ng p24/10^6 cells of HIV-1NL4-3-GFP-IRES-Nef. Cells were split every 3 days, fixed in 0.5% paraformaldehyde/PBS, and assayed for GFP synthesis by flow cytometry.” left out, “1-5×10^5 events were acquired for analysis.” left out

[5] = tested on: HIV-1
Description: CRFK, feline kidney fibroblast cells, lack endogenous T5 and are commonly used in the field as they have large T5-restriction phenotypes in single-cycle assays.
as §1
as §1, with “cytometry.” for “cytometry. For infection of”, “or macrophages were infected with” for “or macrophages,”, “of CXCR4” for “of a CXCR4-”, “HIV-1NL4-3 stocks, or with low passage, primary isolates HIV-1DH12” for “HIV-1NL4-3 stock was used,”, “and HIV-1132W, (Olivier Schwartz, Pasteur Institute, Paris). Infection” for “and infection”, “supernatant (7).” for “supernatant (Sayah et al., 2004).”

[6] = tested on: HIV-1NL4-3-IRES-GFP-Nef; experiment: Single-cycle cell-to-cell spreading assay, 293T donors and Jurkat targets; type: cell-based; details: protein expressed in 293T donor cells, 2 hours co-culture
Text: The mechanism underlying these observations has not yet been determined. […] This would implicate T5-mediated restriction both at post-entry and at a much later step in the viral life cycle (Sakuma et al., 2007; Zhang et al., 2008a). […] To assess the effects of donor and target cell T5Cyp on cell-to-cell spread of HIV-1, a single-cycle cell-to-cell spreading assay for HIV-1 infection was designed. 293T donor cell lines expressing control or indicated T5Cyp were transfected with HIV-1NL4-3-IRES-GFP-Nef provirus and supernatant was harvest during the first 48 hours to measure production of virus by RT activity. […] At the indicated time points dextran sulfate was added to the co-culture to block further infection and cells were harvested. 48 hours later the percentage of infected target Jurkat T cells was measured by flow cytometry (FIG. 53A). The magnitude of HIV-1 restriction in single cycle assays using cell-free virus is shown for recipient Jurkat T cell lines and donor 293 T cell lines is shown (FIG. 53B).

For “AoT5Cyp: Aotus (owl monkey) TRIM5-cyclophilin A fusion protein [reference compound]”, the “growth kinetics and cell surface marker levels vs control vector” value [1] was “grew with the same kinetics and expressed similar levels”, the “block of V86P/H87Q/I91V/M96I HIV-1” value [2] was “blocked infection by viruses bearing this sequence as efficiently as they block standard HIV-1 clones” and the “HIV-1 replication in spreading infection” value [3] was “No HIV-1 replication was detected; also recorded: HIV-1 replication was not detected”. For the same substance, the “isolation of resistant HIV-1” value [3] was “could not be isolated”, the “restriction of SIVMAC251” value [4] was “neither AoT5Cyp nor hT5Cyp can restrict this virus” and the “block of HIV-1 infection relative to hT5Cyp” value ([5]; CRFK cells, low multiplicities of infection) was “about 10 fold”. The HIV-1 restriction activity ([5]; in words, CRFK cells) was “restricted all four lentiviruses”, the “inhibition of HIV-1” value ([5]; single-cycle infection of CRFK cells) was roughly 1000 fold and the “infection of control target cells lower than with empty vector donors” value [6] was 3 fold.
With “hT5Cyp: human TRIM5α fused at serine 322 to human cyclophilin A, SEQ ID NO:12” the “growth kinetics and cell surface marker levels vs control vector” value [1] was “grew with the same kinetics and expressed similar levels”, the “block of V86P/H87Q/I91V/M96I HIV-1” value [2] was “blocked infection by viruses bearing this sequence as efficiently as they block standard HIV-1 clones” and the “HIV-1 replication in spreading infection” value [3] was “No HIV-1 replication was detected; also recorded: significantly greater anti-HIV-1 activity than a chimeric human/rhesus monkey TRIM5α; also recorded: HIV-1 replication was not detected; also recorded: superior anti-HIV-1 activity”. The “isolation of resistant HIV-1” value [3] was “could not be isolated”, the “restriction of SIVMAC251” value [4] was “neither AoT5Cyp nor hT5Cyp can restrict this virus” and the “potency relative to hT5αR323-332 and hT5αR332P” value ([5]; CRFK cells) was roughly 10 fold. The “restriction of HIV-1 relative to rhT5α” value ([5]; CRFK cells) was roughly 10 fold and the “infection of control target cells lower than with empty vector donors” value [6] was 10 fold.

Source: patent US8835617B2, “Polynucleotides encoding a human TRIM-Cyp fusion polypeptide, compositions thereof, and methods of using same” (priority 2008, dated 2014)
